Measured values reported in patent US9540363B2, “Solid oral formulations and crystalline forms of an inhibitor of apoptosis protein” (Novartis AG, priority 2009, dated 2017).

What was measured:
[1] = Water sorption and desorption (hygroscopicity) of crystalline forms; assay type: physicochemical; settings: for maximum water uptake: at 25° C. up to 95% RH; for hygroscopicity: crystalline solid form
Excerpt: The crystalline forms of compound of Formula (I), its salts and solvates can be characterized by a number of methods, including but not limited to, Powder X-Ray diffraction (PXRD), simulated powder X-ray patterns (Yin. S.; Scaringe, R. P.; DiMarco, J.; Galella, M. and Gougoutas, J. Z., American Pharmaceutical Review, 2003, 6, 2, 80), Differential scanning calorimetry (DSC) experiments, Solid-state C-13 NMR measurements, (W. L. Earl and D. L. VanderHart, J. Magn. Reson., 1982, 48, 35-54), Raman spectroscopy, Infra-red spectroscopy, Moisture sorption isotherms (VTI—variable temperature isotherms), and hot stage techniques.
(§1) The crystalline forms HA, A, B, C, and D obtained in Examples 11-16 are analyzed by various standard methods: XPRD, DSC, TGA, Microscopy. Water sorption and desorption is also examined.

[2] = Heating of the hemihydrate form (dehydration and form conversion); assay type: physicochemical; settings: upon heating
Method: Form B can be obtained by heating the hemihydrate Form HA above 100° C. over a period of time to remove the water completely, by equilibrating the hemihydrate Form HA in heptane at 50° C., or by cooling crystallization from methyl isobutyl ketone.
as §1

SMILES | maximum water uptake [1] | hygroscopicity [1] | heating temperature at which the form loses water and converts to Form B [2] | water content ([1]; between 10% relative humidity (RH) and 70% RH) [%] | additional moisture taken up ([1]; from 70% RH to 95% RH) [%]
CN[C@@H](C)C(=O)N[C@H](C(=O)N1CCC[C@H]1c1nc(C(=O)c2ccc(F)cc2)cs1)C1CCCCC1 [Form A, (S)—N—((S)-1-cyclohexyl-2-{(S)-2-[4-(4-fluoro-benzoyl)-thiazol-2-yl]-pyrrolidin-1-yl}-2-oxo-ethyl)-2-methylamino-propionamide] | about 0.8% | slightly hygroscopic |  |  | 
CN[C@@H](C)C(=O)N[C@H](C(=O)N1CCC[C@H]1c1nc(C(=O)c2ccc(F)cc2)cs1)C1CCCCC1 [Form B, (S)—N—((S)-1-cyclohexyl-2-{(S)-2-[4-(4-fluoro-benzoyl)-thiazol-2-yl]-pyrrolidin-1-yl}-2-oxo-ethyl)-2-methylamino-propionamide] | about 0.5% | slightly hygroscopic |  |  | 
CN[C@@H](C)C(=O)N[C@H](C(=O)N1CCC[C@H]1c1nc(C(=O)c2ccc(F)cc2)cs1)C1CCCCC1 [Form C, (S)—N—((S)-1-cyclohexyl-2-{(S)-2-[4-(4-fluoro-benzoyl)-thiazol-2-yl]-pyrrolidin-1-yl}-2-oxo-ethyl)-2-methylamino-propionamide] | less than 0.2% | nonhygroscopic |  |  | 

Results, then the compound that gave them:

maximum water uptake [1] | hygroscopicity [1] | heating temperature at which the form loses water and converts to Form B [2] | water content ([1]; between 10% relative humidity (RH) and 70% RH) [%] | additional moisture taken up ([1]; from 70% RH to 95% RH) [%] | SMILES
less than 0.5% | slightly hygroscopic |  |  |  | CN[C@@H](C)C(=O)N[C@H](C(=O)N1CCC[C@H]1c1nc(C(=O)c2ccc(F)cc2)cs1)C1CCCCC1 [Form D, (S)—N—((S)-1-cyclohexyl-2-{(S)-2-[4-(4-fluoro-benzoyl)-thiazol-2-yl]-pyrrolidin-1-yl}-2-oxo-ethyl)-2-methylamino-propionamide]
 | slightly hygroscopic | above 100 °C | ~1.7 | ~0.4 | CN[C@@H](C)C(=O)N[C@H](C(=O)N1CCC[C@H]1c1nc(C(=O)c2ccc(F)cc2)cs1)C1CCCCC1 [Form HA, (S)—N—((S)-1-cyclohexyl-2-{(S)-2-[4-(4-fluoro-benzoyl)-thiazol-2-yl]-pyrrolidin-1-yl}-2-oxo-ethyl)-2-methylamino-propionamide]
